Values joined by “and” are separate entries in the source; they are usually repeats but may differ in a detail not shown here. Equal values may be shown once.
Assays:
Format in all cases: cell-based
[1] = test system: Nalidixic acid resistant E. coli O157:H7; test: Reduction of E. coli on raw beef brisket, dip treatment; details: 10 minutes dip, ambient, 220 ppm POAA / 180 ppm PFA / 50 ppm LAS per formula (Table 15)
Method: Nalidixic acid resistant E. coli O157:H7 was used to evaluate the efficacy in treatment with performic acid composition on raw beef brisket according to the conditions shown in Table 14.
The generation of PFA from the perhydrolysis of glycerol formates, PFA formulations, POAA formations and controls were evaluated as shown in Table 15.

[2] = test system: Bacillus subtilis ATCC 19659; test: Sporicidal activity of ester PFA, dirty conditions (Example 20); details: 5 minutes
Text: (§1) Various Bacillus and Aspergillus pathogens were used to evaluate the micro efficacy of ester PFA generated according to methods of the present invention.

[3] = test system: Aspergillus brasiliensis ATCC 16404; test: Fungicidal activity of ester PFA, dirty conditions (Example 20); details: 5 minutes
Text: as §1

[4] = test system: Aspergillus brasiliensis ATCC 16404; test: Fungicidal/yeasticidal activity of ester PFA versus POAA (Example 22); details: for Average CFU/mL / Log10 Growth / Log10 Reduction: 20°C, dirty
Text: (§2) Canidia and Aspergillus pathogens were used to evaluate the micro efficacy of ester PFA generated according to methods of the present invention in comparison to POAA.

[5] = test system: Candida albicans ATCC 10231; test: as above; details: for Average CFU/mL / Log10 Growth / Log10 Reduction: 20°C, dirty
Text: as §2

[6] = 200 ppm PFA pH 6.15 / 245 ppm POAA pH 6.56, 5 minutes
[7] = 200 ppm PFA pH 6.15 / 245 ppm POAA pH 6.56, 10 minutes
[8] = 200 ppm PFA pH 6.15 / 245 ppm POAA pH 6.56, 15 minutes
[9] = 300 ppm PFA pH 6.21 / 368 ppm POAA pH 6.63, 5 minutes
[10] = 300 ppm PFA pH 6.21 / 368 ppm POAA pH 6.63, 10 minutes

Q: For `O=COO` [PFA, peroxyformic acid], which “Average Log CFU/cm2” value [1] is on record?
A: Its value is 3.22 Log CFU/cm2.

Q: And the “Log reduction” value [1]?
A: Its value is 0.83 Log.

Q: What about the CFU/cm2 ([1]; single samples) of the same molecule?
A: The CFU/cm2 was 1.84E+03 CFU/cm2 and 1.42E+03 CFU/cm2 and 1.72E+03 CFU/cm2.

Q: What about the CFU/ml ([1]; single samples) of the same molecule?
A: Its CFU/ml is 9.20E+02 CFU/ml and 7.10E+02 CFU/ml and 8.60E+02 CFU/ml.

Q: What about the “Log CFU/cm2” value ([1]; single samples) of the same molecule?
A: Its value is 3.26 Log CFU/cm2 and 3.15 Log CFU/cm2 and 3.24 Log CFU/cm2.

Q: What about the “Log10 Growth” value ([2]; 200 ppm PFA pH 5.81, 35°C) of the same molecule?
A: Its value is less than 2.18 Log10.

Q: And the “Log10 Reduction” value ([2]; 200 ppm PFA pH 5.81, 35°C)?
A: Its value is greater than 3.87 Log10.

Q: What about the “Log10 Growth” value ([2]; 250 ppm PFA pH 5.82, 35°C) of the same molecule?
A: The value was less than 2.18 Log10.

Q: What about the “Log10 Reduction” value ([2]; 250 ppm PFA pH 5.82, 35°C) of the same molecule?
A: Its value is greater than 3.87 Log10.

Q: And the “Log10 Growth” value ([2]; 300 ppm PFA pH 5.91, 35°C)?
A: Its value is less than 2.18 Log10.

Q: And the “Log10 Reduction” value ([2]; 300 ppm PFA pH 5.91, 35°C)?
A: Its value is greater than 3.87 Log10.

Q: And the “Log10 Growth” value ([2]; 350 ppm PFA pH 5.88, 35°C)?
A: The value was less than 2.18 Log10.

Q: And the “Log10 Reduction” value ([2]; 350 ppm PFA pH 5.88, 35°C)?
A: The value was greater than 3.87 Log10.

Q: What about the “Log10 Growth” value ([3]; 200 ppm PFA pH 5.81, 35°C) of the same molecule?
A: Its value is greater than 4.22 Log10.

Q: What about the “Log10 Reduction” value ([3]; 200 ppm PFA pH 5.81, 35°C) of the same molecule?
A: The value was less than 1.89 Log10.

Q: What about the “Log10 Growth” value ([3]; 250 ppm PFA pH 5.82, 35°C) of the same molecule?
A: The value was 3.55 Log10.

Q: And the “Log10 Reduction” value ([3]; 250 ppm PFA pH 5.82, 35°C)?
A: Its value is 2.56 Log10.

Q: And the “Log10 Growth” value ([3]; 300 ppm PFA pH 5.91, 35°C)?
A: Its value is 3.38 Log10.

Q: What about the “Log10 Reduction” value ([3]; 300 ppm PFA pH 5.91, 35°C) of the same molecule?
A: Its value is 2.73 Log10.

Q: And the “Log10 Growth” value ([3]; 350 ppm PFA pH 5.88, 35°C)?
A: The value was 3.46 Log10.

Q: What about the “Log10 Reduction” value ([3]; 350 ppm PFA pH 5.88, 35°C) of the same molecule?
A: The value was 2.65 Log10.

Q: And the “reduction in A. brasiliensis conidio spores compared with POAA” value ([4]; 5, 10 and 15 minutes, lower actives, FIG. 19)?
A: Its value is “improved reduction”.

Q: What about the “Average CFU/mL” value [4, 6] of the same molecule?
A: Its value is 1.60E+04 CFU/mL.

Q: And the “Log10 Growth” value [4, 6]?
A: The value was 4.20 Log10.

Q: What about the “Log10 Reduction” value [4, 6] of the same molecule?
A: Its value is 1.54 Log10.

Q: And the “Average CFU/mL” value [4, 7]?
A: The value was 1.75E+03 CFU/mL.

Q: And the “Log10 Growth” value [4, 7]?
A: Its value is 3.24 Log10.

Q: And the “Log10 Reduction” value [4, 7]?
A: The value was 2.50 Log10.

Q: What about the “Average CFU/mL” value [4, 8] of the same molecule?
A: Its value is 3.85E+02 CFU/mL.

Q: And the “Log10 Growth” value [4, 8]?
A: The value was 2.59 Log10.

Q: What about the “Log10 Reduction” value [4, 8] of the same molecule?
A: The value was 3.16 Log10.

Q: And the “Average CFU/mL” value [4, 9]?
A: The value was 4.10E+02 CFU/mL.

Q: What about the “Log10 Growth” value [4, 9] of the same molecule?
A: Its value is 2.61 Log10.

Q: And the “Log10 Reduction” value [4, 9]?
A: The value was 3.13 Log10.

Q: What about the “Average CFU/mL” value [4, 10] of the same molecule?
A: Its value is 1.20E+02 CFU/mL.

Q: And the “Log10 Growth” value [4, 10]?
A: Its value is 2.08 Log10.

Q: What about the “Log10 Reduction” value [4, 10] of the same molecule?
A: Its value is 3.67 Log10.

Q: What about the “reduction in C. albicans compared with POAA” value ([5]; 5, 10 and 15 minutes, lower actives, FIG. 18) of the same molecule?
A: The value was “equivalent reduction”.

Q: And the “Average CFU/mL” value [5, 6]?
A: Its value is less than 140 CFU/mL.

Q: What about the “Log10 Growth” value [5, 6] of the same molecule?
A: The value was less than 2.15 Log10.

Q: And the “Log10 Reduction” value [5, 6]?
A: The value was greater than 4.14 Log10.

Q: What about the “Average CFU/mL” value [5, 7] of the same molecule?
A: The value was less than 140 CFU/mL.

Q: And the “Log10 Growth” value [5, 7]?
A: The value was less than 2.15 Log10.

Q: And the “Log10 Reduction” value [5, 7]?
A: The value was greater than 4.14 Log10.

Q: And the “Average CFU/mL” value [5, 8]?
A: Its value is less than 140 CFU/mL.

Q: And the “Log10 Growth” value [5, 8]?
A: Its value is less than 2.15 Log10.

Q: What about the “Log10 Reduction” value [5, 8] of the same molecule?
A: The value was greater than 4.14 Log10.

Q: And the “Average CFU/mL” value [5, 9]?
A: Its value is less than 140 CFU/mL.

Q: What about the “Log10 Growth” value [5, 9] of the same molecule?
A: Its value is less than 2.15 Log10.

Q: And the “Log10 Reduction” value [5, 9]?
A: Its value is greater than 4.14 Log10.

Q: What about the “Average CFU/mL” value [5, 10] of the same molecule?
A: The value was less than 140 CFU/mL.

Q: And the “Log10 Growth” value [5, 10]?
A: Its value is less than 2.15 Log10.

Q: And the “Log10 Reduction” value [5, 10]?
A: Its value is greater than 4.14 Log10.
